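1) Cells in 96-well plates. 2) Compound, 48 h, 5 concentrations. 3) Linear interpolation between surrounding doses. 4) Unreached endpoint = highest concentration. At the GI50, growth is halved.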 Active and inactive are the calls of the source. No stated cut-off is given here; in the data, active = GI50 up to about 1.1 µM and inactive = higher. Where a SMILES comes first, the peptide text is derived from it. [ ]: non-standard residue; d: D form. The star is where a group is joined. Hyp = O=C(O)[CH]1C[CH](O)CN1; Cbz = O=C(OCc1ccccc1)*
Experiments:
Test in all cases: DTP human tumour cell line panel, 48 h
[1] = tested on: SK-OV-3
[2] = tested on: SN12C
[3] = tested on: EKVX
[4] = tested on: A498
[5] = tested on: SF-295
[6] = tested on: NCI-H460
[7] = tested on: HOP-62
[8] = tested on: CAKI-1
[9] = tested on: NCI/ADR-RES
[10] = tested on: DU-145
[11] = tested on: SK-MEL-2
[12] = tested on: U-251
[13] = tested on: HT-29
[14] = tested on: RXF 393
[15] = tested on: T47D
[16] = tested on: OVCAR-4
[17] = tested on: SNB-75
[18] = tested on: SF-268
[19] = tested on: NCI-H522
[20] = tested on: HOP-92

Measured: GI50

O=c1[nH]nc(-c2ccccc2)n1-n1cccc1
inactive: [1] > 100 µM | [2] > 100 µM | [3] > 100 µM | [4] > 100 µM | [5] > 100 µM | [6] > 100 µM | [7] > 100 µM | [8] > 100 µM | [9] > 100 µM | [10] > 100 µM | [11] > 100 µM | [12] > 100 µM | [13] > 100 µM | [14] > 100 µM | [15] > 100 µM | [16] > 100 µM | [17] > 100 µM | [18] > 100 µM | [19] > 100 µM

CN(C1=NCCO1)c1cccc2c1CCCC2
inactive: [1] 4.71 µM | [2] 3.08 µM | [3] 8.55 µM | [4] 3.71 µM | [5] 4.35 µM | [6] 4.01 µM | [7] 7.08 µM | [8] 3.6 µM | [9] 3.6 µM | [10] 9.55 µM | [11] 4.09 µM | [12] 3.57 µM | [13] 2.43 µM | [14] 3.64 µM | [15] 8.85 µM | [16] 3.05 µM | [18] 5.33 µM | [19] 4.16 µM

CC(=O)OCC1CCC(=C2C(=O)OC(C)(C)OC2=O)N1 (stereo unspecified)
inactive: [1] > 100 µM | [2] > 100 µM | [3] > 100 µM | [5] > 100 µM | [6] > 100 µM | [20] > 100 µM | [7] > 100 µM | [8] > 100 µM | [9] > 100 µM | [10] > 100 µM | [11] > 100 µM | [12] > 100 µM | [13] > 100 µM | [14] > 100 µM | [15] > 100 µM | [16] > 100 µM | [17] > 100 µM | [18] > 100 µM | [19] > 100 µM

N=C(N)NS(=O)(=O)c1ccc(NNC(=O)c2cccc3c(O)c4ccccc4nc23)cc1
inactive: [1] 29.6 µM | [2] 33.8 µM | [3] 23.4 µM | [5] 35.7 µM | [6] 20.6 µM | [20] 25.3 µM | [7] 22 µM | [8] 34.6 µM | [9] 38.3 µM | [10] 32.7 µM | [11] 25.1 µM | [12] 32.8 µM | [13] 21.6 µM | [14] 38.1 µM | [15] 17.7 µM | [16] 29.5 µM | [17] 30.7 µM | [18] 33.7 µM | [19] 21.6 µM

COc1ccc2cc(C(=O)O)ccc2c1OC
inactive: [1] > 100 µM | [2] > 100 µM | [4] > 100 µM | [5] > 100 µM | [6] > 100 µM | [7] > 100 µM | [8] > 100 µM | [9] > 100 µM | [10] 69.5 µM | [11] > 100 µM | [12] > 100 µM | [13] > 100 µM | [15] > 100 µM | [17] 43 µM | [18] > 100 µM | [19] > 100 µM

Nc1c(C(=O)O)c2ccc([N+](=O)[O-])cc2c(=O)n1-c1nc2ccccc2s1
inactive: [1] > 100 µM | [2] > 100 µM | [3] > 100 µM | [4] > 100 µM | [5] > 100 µM | [6] > 100 µM | [7] > 100 µM | [8] > 100 µM | [9] > 100 µM | [10] > 100 µM | [11] > 100 µM | [12] > 100 µM | [13] > 100 µM | [14] > 100 µM | [15] > 100 µM | [16] > 100 µM | [17] > 100 µM | [18] > 100 µM | [19] > 100 µM

C1CCNCC1.O=C1NC(=S)N/C1=C/c1ccccc1O
inactive: [1] > 100 µM | [2] > 100 µM | [3] > 100 µM | [5] > 100 µM | [20] > 100 µM | [7] > 100 µM | [8] > 100 µM | [9] > 100 µM | [10] > 100 µM | [11] > 100 µM | [12] > 100 µM | [13] > 100 µM | [14] > 100 µM | [15] 56.2 µM | [16] > 100 µM | [18] > 100 µM | [19] 92 µM

CCOC(=O)c1ccc(/N=N/N(C)C(=O)C(C)N)cc1 (stereo unspecified)
inactive: [2] > 100 µM | [3] > 100 µM | [5] > 100 µM | [6] 16.7 µM | [20] 46.7 µM | [7] > 100 µM | [8] 92.5 µM | [9] > 100 µM | [10] > 100 µM | [11] > 100 µM | [12] > 100 µM | [13] > 100 µM | [14] > 100 µM | [15] > 100 µM | [16] > 100 µM | [17] 55.8 µM | [18] > 100 µM | [19] 86.5 µM

CC(C)(C)[Si](C)(C)OCC1CCC(n2cnc3c(=O)[nH]cnc32)O1 (stereo unspecified)
inactive: [1] > 100 µM | [2] > 100 µM | [3] > 100 µM | [5] > 100 µM | [6] > 100 µM | [20] > 100 µM | [7] > 100 µM | [8] > 100 µM | [9] 45.6 µM | [10] > 100 µM | [11] > 100 µM | [12] > 100 µM | [13] > 100 µM | [14] > 100 µM | [15] 82.8 µM | [16] > 100 µM | [17] 20.3 µM | [18] > 100 µM | [19] > 100 µM

Cc1ccccc1NC(=N)Nc1ccccc1C
inactive: [1] > 100 µM | [2] > 100 µM | [3] > 100 µM | [4] > 100 µM | [5] > 100 µM | [6] > 100 µM | [7] > 100 µM | [8] > 100 µM | [9] > 100 µM | [10] > 100 µM | [11] > 100 µM | [12] > 100 µM | [13] > 100 µM | [14] > 100 µM | [15] > 100 µM | [16] > 100 µM | [17] 54.6 µM | [18] > 100 µM | [19] > 100 µM

NC(=O)CNC(=O)C1CC(O)CN1C(=O)C1CCCN1C(=O)OCc1ccccc1 (stereo not drawn) (Cbz-Pro-[Hyp]-Gly-NH2; configuration not given here)
inactive: [1] > 100 µM | [2] > 100 µM | [3] > 100 µM | [4] > 100 µM | [5] > 100 µM | [6] > 100 µM | [7] > 100 µM | [9] > 100 µM | [10] > 100 µM | [11] > 100 µM | [12] > 100 µM | [13] > 100 µM | [14] > 100 µM | [15] > 100 µM | [16] > 100 µM | [17] > 100 µM | [18] > 100 µM | [19] > 100 µM

Reference: ChEMBL document CHEMBL1201862, “PubChem BioAssay data set” (2004)
